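Protocol summary: plate cells (96-well), add compound at 5 concentrations, incubate 48 h, interpolate endpoints linearly. Abbreviation: GI50, concentration required for 50% inhibition of growth. TGI marks complete inhibition of growth.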
Columns and labels:
Test in all cases: DTP human tumour cell line panel, 48 h
CCRF-CEM leukemia = test system: CCRF-CEM leukemia
COLO 205 colon = test system: COLO 205 colon
EKVX NSCLC = test system: EKVX NSCLC
HL-60(TB) leukemia = test system: HL-60(TB) leukemia
HOP-62 NSCLC = test system: HOP-62 NSCLC
HOP-92 NSCLC = test system: HOP-92 NSCLC
PC-3 prostate = test system: PC-3 prostate
RXF 393 renal = test system: RXF 393 renal
SK-MEL-5 melanoma = test system: SK-MEL-5 melanoma
T-47D breast = test system: T-47D breast

Row | SMILES | GI50 (CCRF-CEM leukemia) [µM] | TGI (CCRF-CEM leukemia) [µM] | GI50 (COLO 205 colon) [nM] | TGI (COLO 205 colon) [µM] | GI50 (EKVX NSCLC) [µM] | TGI (EKVX NSCLC) [µM] | GI50 (HL-60(TB) leukemia) [µM] | TGI (HL-60(TB) leukemia) [µM] | GI50 (HOP-62 NSCLC) [µM] | TGI (HOP-62 NSCLC) [µM] | GI50 (HOP-92 NSCLC) [nM] | TGI (HOP-92 NSCLC) [µM] | GI50 (PC-3 prostate) [µM] | TGI (PC-3 prostate) [µM] | GI50 (RXF 393 renal) [µM] | TGI (RXF 393 renal) [µM] | GI50 (SK-MEL-5 melanoma) [µM] | TGI (SK-MEL-5 melanoma) [µM] | GI50 (T-47D breast) [nM] | TGI (T-47D breast) [µM]
1 | COc1ccc2c(c1)C(=O)c1c-2n(CCCN=[N+]=[N-])c(=O)c2cc(N)ccc12 | > 100 | > 100 | > 100000 | > 100 | > 100 | > 100 | > 100 | > 100 | > 100 | > 100 | 58800 | > 100 | > 100 | > 100 | 57.6 | > 100 | > 100 | > 100 | > 100000 | > 100
2 | O=C(c1ccccc1)c1ccc(O)c2ncccc12 | 3.64 | > 100 | 23900 | 95.7 | 3.09 | 56.1 | 2.09 | 8.82 | 5.31 | 48.6 | 2890 | 16.5 | 4.36 | 97.6 | 3.18 | 19.6 | 4.72 | 26.6 | 3140 | 15.3
3 | N#CSCC1CC(O)(c2ccccc2)CC(c2ccc(Cl)cc2)O1 (stereo not given) | 2.55 | 11.2 | 1910 | 3.92 | 4.19 | 17.7 | 2.52 | 5.3 | 4.46 | 14.9 | 2210 | 5.58 | 2.47 | 7.49 | 1.94 | 3.72 | 0.559 | 14.9 | 1700 | 6.27
4 | CNC(=O)/C(=C/c1ccc(OC)cc1)c1cc(OC)c(OC)c(OC)c1 | – | > 100 | – | 7.36 | – | > 100 | – | 8.01 | – | > 100 | – | > 60.2 | – | > 100 | – | 11.8 | – | > 36.6 | – | > 100
5 | CC(=O)N1N=C(c2ccc(Nc3nc(Nc4ccc(F)cc4)nc(Nc4ccc(Cl)cc4)n3)cc2)CC1c1ccc(N(C)C)cc1 (stereo not given) | 5.23 | > 100 | 1810 | 5.9 | 8.06 | > 90.9 | 5.04 | 15.7 | 3.25 | 13.2 | 2870 | 19.1 | 3.18 | > 64.8 | 1.63 | 5.33 | 6.68 | 19.3 | 2010 | 16
6 | O=C(O)c1cc2cc(O)ccc2[nH]1 | > 100 | > 100 | > 100000 | > 100 | > 100 | > 100 | > 100 | > 100 | > 100 | > 100 | > 100000 | > 100 | > 100 | > 100 | > 100 | > 100 | > 100 | > 100 | > 100000 | > 100
7 | Cc1ccc(NC(=O)N2CCCCC2)cc1[N+](=O)[O-] | > 100 | > 100 | > 100000 | > 100 | > 100 | > 100 | > 100 | > 100 | > 100 | > 100 | > 100000 | > 100 | > 100 | > 100 | > 100 | > 100 | > 100 | > 100 | 77100 | > 100
8 | CC(C)c1ccc(/C=N/N=C(N)N)cc1 | 4.33 | 47.5 | 1720 | 3.33 | 5.33 | 24.4 | 4.36 | 11.3 | 4.61 | 17.9 | 1350 | 7.27 | 4.25 | 18.6 | 3.8 | 16.6 | 2.54 | 8.16 | 2030 | 5.53

Reference: PubChem BioAssay (NCI)
